± gives the expanded uncertainty stated by the source.

Data set [1] can be described thus: refractive index (Na D-line) (dimensionless). Conditions: 298.15 K; 101.33 kPa; Liquid; Standard Abbe refractometry.
The conditions of data set [2]: Liquid; for mass density: 293.15 K, 101.33 kPa; for Normal boiling temperature: Fischer boiling point apparatus.

With `CC(=O)O` [acetic acid], in data set [1], the refractive index (commonly the speed of light in vacuum divided by its phase velocity in the sample) is reported as 1.3713 ± 0.0007. In addition, in data set [2], the mass density (usually the mass of a sample divided by its volume) was 1049.42 ± 0.29 kg/m3 and the Normal boiling temperature was found to be 118.1 ± 0.2 °C.
In the case of `O` [water], the refractive index in data set [1] worked out at 1.3324 ± 0.0007.
`COC(=O)CCCCC(=O)OC` [dimethyl 1,6-hexanedioate]: the refractive index in data set [1] was 1.4215 ± 0.0012. In data set [2], the mass density is listed as 1061.9 ± 0.61 kg/m3 and the Normal boiling temperature is 225.1 ± 0.2 °C.

(Values after the NIST ThermoML archive (doi:10.1016/j.fluid.2004.11.025).)
